From patent publication US20220296618A1, “ANTI-INFLAMMATORY COMPOUNDS FOR USE IN THE TREATMENT OF DERMAL DISORDERS” (COUNCIL OF SCIENTIFIC & INDUSTRIAL RESEARCH, priority 2019, published 2022)

Experiments:
[1] = system: wound on the dorsal skin of diabetic (db/db) mice; assay: Diabetic wound healing (1 cm^2 punch biopsy wound) in db/db mice, topical cream; type: in vivo; settings: for Wound healing observed animals in a group on day 10 / % of Wound healing: topical once daily; for Wound healing observed animals in a group on day 10: 5 animals in the group; for % of Wound healing: day 10
Description: Method: In this study, mice of db/db strain (age: 13-14 weeks) were used as this strain is more analogous to diabetic wound healing in humans. A 1 cm^2 wound was made using a punch biopsy on the dorsal side of the db/db mice under local anesthetic conditions. The animals were divided into 5 groups with 5 animals in each group as follows: • Group 1 (n=5): treated with vehicle alone (Diabetic Control Group). • Group 2 (n=5) treated with Compound 2 (2.5%) prepared in the vehicle. • Group 3 (n=5): treated with Compound 1 (0.625%) prepared in the vehicle. • Group 4 (n=5) treated with Compound 1 (1.25%) prepared in the vehicle. • Group 5 (n=5) treated with Compound 1 (2.5%) prepared in the vehicle. Three concentrations of Compound 1, i.e. 0.625%, 1.25%, and 2.5%, were tested for this study. The topical preparations were applied on the wound once daily for 12 days. Images of the wound area were visualized, and measurements of the wound area were recorded on each day of the study.

[2] = system: wound on the dorsal skin of non-diabetic C57 mice; assay: Wound healing (1 cm^2 punch biopsy wound) in non-diabetic C57BL/6j mice, topical cream; type: in vivo; settings: topical once daily for 12 days; for Wound healing observed animals in a group: 5 animals in the group
Description: Method: In this study, C57BL/6j mice strain (age: 12 weeks) were used for studying the wound healing process. A 1 cm^2 wound was made using a punch biopsy on the dorsal side of the C57 mice. The animals were divided into 5 groups consisting of 5 animals in each group as follows: • Group 6 (n=5): treated with vehicle alone (Non-Diabetic Control Group). • Group 7 (n=5) treated with Compound 2 (2.5%) prepared in the vehicle. • Group 8 (n=5): treated with Compound 1 (0.625%) prepared in the vehicle. • Group 9 (n=5) treated with Compound 1 (1.25%) prepared in the vehicle. • Group 10 (n=5) treated with Compound 1 (2.5%) prepared in the vehicle. Three concentrations of Compound 1, i.e. 0.625%, 1.25%, and 2.5%, prepared in the vehicle were tested in this study. The topical preparations were applied on the wound once daily for 12 days starting 12 hours after the wound was created. Images of the wound area were visualized, and measurements of area were recorded on each day of the study.

[3] = system: hepatic enzyme markers ALT and AST; settings: intraperitoneally prior to treatment with t-butyl hydroperoxide; cited from earlier work
[4] = system: surgical incision wound on rabbit skin; assay: Incisional wound healing in rabbit, topical cream; type: in vivo, New Zealand rabbits; settings: 2.5% in vehicle
Description: In this study, New Zealand rabbits weighing between 2.0-2.5 kg body weight were used and divided into two groups;
Control Group: Treated with the vehicle alone.
Test Group: Treated with Compound 1 (2.5%) prepared in the vehicle.
Para vertebral straight incisions of 2 cm length each were made through the entire thickness of the skin on either side of the vertebral column with the help of a sharp scalpel. After complete haemostasis, the wound was closed by means of interrupted sutures placed at equidistance points about 1 cm apart (See FIG. 6). Animals were treated once daily from day 0 to day 14 post-wounding day. Images were taken daily during the study period. Sutures were removed on day 7 and observed for wound closure.

[5] = system: surgical incisional wound in diabetic (db/db) mice; assay: Incisional wound healing in diabetic (db/db) mice, with or without SIRT1 inhibitor EX-527; type: in vivo; settings: Group 12, 0.625% in vehicle, topical once daily for 7 days
Description: In this study, mice of db/db strain (age: 12 weeks) were used. The animals were divided into four groups: • Group 11: Mice control treated with the vehicle alone. • Group 12 Mice treated with Compound 1 (0.625%) prepared in the vehicle. • Group 13 Mice treated with Compound 1 (0.625%) and EX-527 (0.025%) in the • vehicle. • Group 14: Mice treated with EX-527 (0.025%) in the vehicle.
Para vertebral straight incisions of 2 cm length and 1 mm depth each were made through the entire thickness of the skin, on either side of the vertebral column with the help of a sharp scalpel. After complete haemostasis, the wound was closed by means of interrupted sutures placed at equidistance points about 1 cm apart (See FIG. 8) All the groups were treated once daily for 7 days with the respective test and control preparations. Images of the wound area were taken on each day of the study by photographs and Doppler imaging. The wound area was measured using a transparent tracing sheet before and during the treatment to measure the wound closure at every 4 day interval.

mice skin tissues = assay: Tensile strength of skin tissues on day 8 after treatment for 7 days; type: in vivo
Method: Method: Fresh mice skin was treated once daily and stretched between the two ends of the tensile machine with a load of 100 kg with a stretching speed of 5 mm/min. (FIG. 9).

[6] = system: IMQ-induced psoriasis in Balb/c mice; assay: IMQ-induced psoriasis in Balb/c mice, PASI scoring; type: in vivo; settings: topical 12 h after IMQ, day 1 to 6
Method: (§1) The effect of topical administration of Compound 1 for the treatment of psoriasis was tested in this animal study. In this study, typical features of psoriasis, namely erythema, scaling, and skin thickness, were induced by the application of 5% w/w imiquimod (IMQ) cream on the dorsal skin of Balb/c mice over a period of 6 consecutive days. Animals that developed psoriasis-like symptoms were used for studying the efficacy of the Compound 1 prepared in a vehicle (as described above). In this study, male Balb/c mice (aged 6 to 8 weeks) were used. The animals were divided into 8 groups consisting of 10 animals in each group as follows:
Animals in this group were topically treated with 62.5 mg of commercially available imiquimod cream (5%) on the shaved back for 6 consecutive days (day 1 to 6 of study) at a specific time in the morning. This negative control group represents the typical psoriatic model induced by imiquimod 5% (IMQ). […]
Psoriatic area and severity index (PASI) scoring was analyzed to determine the efficacy of compositions containing a Compound 1 with appropriate controls as part of the study. The severity of inflammation of the skin was evaluated by an objective scoring system based on the clinical PASI scores. Erythema (0-4) and scaling (0-4) were scored independently where, 0-none; 1-slight; 2-moderate; 3-marked; 4-very marked. […]

IL-23 = IL-23 level in skin homogenate by ELISA, IMQ-induced psoriasis model; type: in vivo, Balb/c mice; settings: day 7, ELISA
Method: as §1
An IMQ-induced psoriasis model reproduces biochemical and histopathological parameters characteristic of human psoriatic lesions. Topical application of the IMQ cream increased levels of cytokines including IL-23 and IL-17 in the treated skin tissues. The animals were euthanized on day 7. Spleen, liver and skin tissues were collected from all the animals Spleen and liver tissues were weighed. IL-17 and IL-23 levels were measured by ELISA using a commercially available kit. The skin homogenates obtained from mice of different groups were analyzed using ELISA for quantification of IL-17 and IL-23 levels as the selected interleukins are the typical inflammatory markers of psoriasis.

[7] = system: IMQ-induced psoriasis in Balb/c mice; assay: Histopathology (H&E staining) of skin, IMQ-induced psoriasis model; type: in vivo; settings: 0.625% preparation; comparable to clobetasol propionate cream
Method: As a part of the efficacy study, a histopathology study was performed to study the morphological observations of the skin of mice representative of the different treatment groups. At the end of experiment, skin samples of mice from each group were fixed in 4% paraformaldehyde and embedded in paraffin. From each paraffin block, 4 μm thick sections were made and mounted on the glass slides. The sections were stained by haematoxylin and eosin and images were taken and evaluated.

In the case of `O=c1ccc2cc(O)c(O)cc2o1` [Compound 2, 6,7-dihydroxycoumarin, reference compound], the “Wound healing observed animals in a group on day 10” value ([1]; 2.5% in vehicle cream) is reported as 0, the “% of Wound healing” value ([1]; 2.5% in vehicle cream) is reported as 0% and the “Day of wound closure” value ([1]; Group 2, 2.5% in vehicle, topical) is reported as ≤ 26 days. The “% of Wound healing” value ([2]; 2.5% in vehicle cream) was 90%, the “Wound healing observed animals in a group” value ([2]; 2.5% in vehicle cream) was 4 and the “Serum levels of hepatic enzyme markers ALT and AST” value [3] was “lower serum levels”.

In the case of `O=c1cc(CCCCCCCC[P+](c2ccccc2)(c2ccccc2)c2ccccc2)c2cc(O)c(O)cc2o1.[Br-]` [Compound 1], the “Wound healing observed animals in a group on day 10” value ([1]; 0.625% in vehicle cream) is reported as 5, the “% of Wound healing” value ([1]; 0.625% in vehicle cream) is reported as 100% and the “Wound healing observed animals in a group on day 10” value ([1]; 1.25% in vehicle cream) is reported as 4. The “% of Wound healing” value ([1]; 1.25% in vehicle cream) was 90%, the “Wound healing observed animals in a group on day 10” value ([1]; 2.5% in vehicle cream) was 4 and the “% of Wound healing” value ([1]; 2.5% in vehicle cream) was 90%. For the same compound, the “Day of complete closure of the wound” value ([1]; Groups 3-5, 0.625%, 1.25% and 2.5% in vehicle, topical) was ≤ 10 days, the “% of Wound healing” value ([2]; 0.625% in vehicle cream) was 90% and the “Wound healing observed animals in a group” value ([2]; 0.625% in vehicle cream) was 4. The “% of Wound healing” value ([2]; 1.25% in vehicle cream) was 90%, the “Wound healing observed animals in a group” value ([2]; 1.25% in vehicle cream) was 4 and the “% of Wound healing” value ([2]; 2.5% in vehicle cream) was 100%. For the same compound, the “Wound healing observed animals in a group” value ([2]; 2.5% in vehicle cream) was 5, the “Time of faster surgical wound healing versus Control Group” value ([4]; topical once daily day 0 to day 14) was ≤ 8 days and the Surgical scar ([4]; topical once daily, compared to Control Group) was “No surgical scar was observed”. For the same compound, the “Time to complete healing of the incisional wound” value [5] was ≤ 7 days, the “Tensile strength (N)” value (mice skin tissues; 0.625%) was 55.33 ± 1.7 N and the “PASI scores over the treatment period” value ([6]; 0.313% in vehicle) was “declines in PASI scores”. The “PASI scores over the treatment period” value ([6]; 0.625% in vehicle) was “better declines in PASI scores”, the “IL-23 levels in skin tissue compared to the negative control” value (IL-23; 0.313% in vehicle) was “decline in IL-23 levels” and the “IL-23 levels in skin tissue compared to the negative control” value (IL-23; 0.625% in vehicle) was “decline in IL-23 levels”. The “Histopathological amelioration of IMQ-induced psoriasis (skin and ear)” value [7] was “ameliorated more”.

With `NC(=O)C1CCCc2c1[nH]c1ccc(Cl)cc21` (centres unmarked) [EX527, 6-chloro-2,3,4,9-tetrahydro-1H-carbazole-1-carboxamide, reference compound] the “Tensile strength (N)” value (mice skin tissues; 0.025%) was 6.03 ± 2.51 N.
